In patent publication US10213433B2 (AbbVie Inc., priority 2010, dated 2019):

target: Bcl-2 protein (Homo sapiens (Human), UniProt P10415); assay: Bcl-2 binding TR-FRET (Time-Resolved Fluorescence-Resonance-Energy-Transfer) assay; conditions: inhibition constant for binding to Bcl-2 protein
Source text: The smaller the Ki value, the greater is the binding affinity.

Sequence of Bcl-2 protein (P10415 whole entry): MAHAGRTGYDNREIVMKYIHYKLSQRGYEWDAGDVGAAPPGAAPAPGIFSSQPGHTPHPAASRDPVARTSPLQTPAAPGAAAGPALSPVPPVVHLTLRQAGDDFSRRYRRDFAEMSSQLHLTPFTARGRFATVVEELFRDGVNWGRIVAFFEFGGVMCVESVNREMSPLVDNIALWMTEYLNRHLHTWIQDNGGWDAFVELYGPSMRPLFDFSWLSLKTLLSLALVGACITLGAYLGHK

Row | SMILES | Ki [nM]
1 | CC1(C)CCC(CN2CCN(c3ccc(C(=O)NS(=O)(=O)c4ccc(NCCC#N)c([N+](=O)[O-])c4)c(Oc4cnc5[nH]ccc5c4)c3)CC2)=C(c2ccc(Cl)cc2)C1 [Compound 62, 4-(4-{[2-(4-chlorophenyl)-4,4-dimethylcyclohex-1-en-1-yl]methyl}piperazin-1-yl)-N-({4-[(2-cyanoethyl)amino]-3-nitrophenyl}sulfonyl)-2-(1H-pyrrolo[2,3-b]pyridin-5-yloxy)benzamide] | < 0.01
2 | CN1CCC(CNc2ccc(S(=O)(=O)NC(=O)c3ccc(N4CCN(CC5=C(c6ccc(Cl)cc6)CC(C)(C)CC5)CC4)cc3Oc3cnc4[nH]ccc4c3)cc2[N+](=O)[O-])CC1 [Compound 65, 4-(4-{[2-(4-chlorophenyl)-4,4-dimethylcyclohex-1-en-1-yl]methyl}piperazin-1-yl)-N-[(4-{[(1-methylpiperidin-4-yl)methyl]amino}-3-nitrophenyl)sulfonyl]-2-(1H-pyrrolo[2,3-b]pyridin-5-yloxy)benzamide] | < 0.01
3 | CC1(C)CCC(CN2CCN(c3ccc(C(=O)NS(=O)(=O)c4ccc(NCC5COCCN5)c([N+](=O)[O-])c4)c(Oc4cnc5[nH]ccc5c4)c3)CC2)=C(c2ccc(Cl)cc2)C1 (stereo not shown) [Compound 66, 4-(4-{[2-(4-chlorophenyl)-4,4-dimethylcyclohex-1-en-1-yl]methyl}piperazin-1-yl)-N-({4-[(morpholin-3-ylmethyl)amino]-3-nitrophenyl}sulfonyl)-2-(1H-pyrrolo[2,3-b]pyridin-5-yloxy)benzamide] | < 0.01
4 | CN1CCN(Nc2ccc(S(=O)(=O)NC(=O)c3ccc(N4CCN(CC5=C(c6ccc(Cl)cc6)CC(C)(C)OC5)CC4)cc3Oc3cnc4[nH]ccc4c3)cc2[N+](=O)[O-])CC1 [Compound 67, 4-(4-{[4-(4-chlorophenyl)-6,6-dimethyl-5,6-dihydro-2H-pyran-3-yl]methyl}piperazin-1-yl)-N-({4-[(4-methylpiperazin-1-yl)amino]-3-nitrophenyl}sulfonyl)-2-(1H-pyrrolo[2,3-b]pyridin-5-yloxy)benzamide] | < 0.01
5 | O=C(NS(=O)(=O)c1ccc(OCC2(F)CCOCC2)c([N+](=O)[O-])c1)c1ccc(N2CCN(CC3=C(c4ccc(Cl)cc4)CCC4(CCCC4)C3)CC2)cc1Oc1cnc2[nH]ccc2c1 [Compound 73, 4-(4-{[8-(4-chlorophenyl)spiro[4.5]dec-7-en-7-yl]methyl}piperazin-1-yl)-N-({4-[(4-fluorotetrahydro-2H-pyran-4-yl)methoxy]-3-nitrophenyl}sulfonyl)-2-(1H-pyrrolo[2,3-b]pyridin-5-yloxy)benzamide] | < 0.01
6 | CC1(C)CCC(c2ccc(Cl)cc2)=C(CN2CCN(c3ccc(C(=O)NS(=O)(=O)c4ccc(NCC5CCOCC5)c([N+](=O)[O-])c4)c(Oc4cnc5[nH]ccc5c4)c3)CC2)C1 [Compound 75, 4-(4-{[2-(4-chlorophenyl)-5,5-dimethylcyclohex-1-en-1-yl]methyl}piperazin-1-yl)-N-({3-nitro-4-[(tetrahydro-2H-pyran-4-ylmethyl)amino]phenyl}sulfonyl)-2-(1H-pyrrolo[2,3-b]pyridin-5-yloxy)benzamide] | < 0.01
7 | CC1(C)CCC(CN2CCN(c3ccc(C(=O)NS(=O)(=O)c4ccc(OCC5COCCN5)c([N+](=O)[O-])c4)c(Oc4cnc5[nH]ccc5c4)c3)CC2)=C(c2ccc(Cl)cc2)C1 (stereo not shown) [Compound 78, 4-(4-{[2-(4-chlorophenyl)-4,4-dimethylcyclohex-1-en-1-yl]methyl}piperazin-1-yl)-N-{[4-(morpholin-3-ylmethoxy)-3-nitrophenyl]sulfonyl}-2-(1H-pyrrolo[2,3-b]pyridin-5-yloxy)benzamide] | < 0.01
8 | O=C(NS(=O)(=O)c1ccc(NCC2CCOCC2)c([N+](=O)[O-])c1)c1ccc(N2CCN(CC3=C(c4ccc(Cl)cc4)CCC4(CCCC4)C3)CC2)cc1Oc1cnc2[nH]ccc2c1 [Compound 79, 4-(4-{[8-(4-chlorophenyl)spiro[4.5]dec-7-en-7-yl]methyl}piperazin-1-yl)-N-({3-nitro-4-[(tetrahydro-2H-pyran-4-ylmethyl)amino]phenyl}sulfonyl)-2-(1H-pyrrolo[2,3-b]pyridin-5-yloxy)benzamide] | < 0.01
9 | CC1(C)CCC(CN2CCN(c3ccc(C(=O)NS(=O)(=O)c4ccc(NC5CCN(S(C)(=O)=O)CC5)c([N+](=O)[O-])c4)c(Oc4cnc5[nH]ccc5c4)c3)CC2)=C(c2ccc(Cl)cc2)C1 [Compound 80, 4-(4-{[2-(4-chlorophenyl)-4,4-dimethylcyclohex-1-en-1-yl]methyl}piperazin-1-yl)-N-[(4-{[1-(methylsulfonyl)piperidin-4-yl]amino}-3-nitrophenyl)sulfonyl]-2-(1H-pyrrolo[2,3-b]pyridin-5-yloxy)benzamide] | < 0.01
10 | CC1(C)CCC(CN2CCN(c3ccc(C(=O)NS(=O)(=O)c4ccc(NC5CCS(=O)(=O)CC5)c([N+](=O)[O-])c4)c(Oc4cnc5[nH]ccc5c4)c3)CC2)=C(c2ccc(Cl)cc2)C1 [Compound 81, 4-(4-{[2-(4-chlorophenyl)-4,4-dimethylcyclohex-1-en-1-yl]methyl}piperazin-1-yl)-N-({4-[(1,1-dioxidotetrahydro-2H-thiopyran-4-yl)amino]-3-nitrophenyl}sulfonyl)-2-(1H-pyrrolo[2,3-b]pyridin-5-yloxy)benzamide] | < 0.01
11 | CC1(C)CCC(CN2CCN(c3ccc(C(=O)NS(=O)(=O)c4ccc(NC5CCN(C6CC6)CC5)c([N+](=O)[O-])c4)c(Oc4cnc5[nH]ccc5c4)c3)CC2)=C(c2ccc(Cl)cc2)C1 [Compound 98, 4-(4-{[2-(4-chlorophenyl)-4,4-dimethylcyclohex-1-en-1-yl]methyl}piperazin-1-yl)-N-({4-[(1-cyclopropylpiperidin-4-yl)amino]-3-nitrophenyl}sulfonyl)-2-(1H-pyrrolo[2,3-b]pyridin-5-yloxy)benzamide] | < 0.01
12 | CCN1CCOCC1COc1ccc(S(=O)(=O)NC(=O)c2ccc(N3CCN(CC4=C(c5ccc(Cl)cc5)CC(C)(C)CC4)CC3)cc2Oc2cnc3[nH]ccc3c2)cc1[N+](=O)[O-] (stereo not shown) [Compound 103, 4-(4-{[2-(4-chlorophenyl)-4,4-dimethylcyclohex-1-en-1-yl]methyl}piperazin-1-yl)-N-({4-[(4-ethylmorpholin-3-yl)methoxy]-3-nitrophenyl}sulfonyl)-2-(1H-pyrrolo[2,3-b]pyridin-5-yloxy)benzamide] | < 0.01
13 | CC1(C)CCC(CN2CCN(c3ccc(C(=O)NS(=O)(=O)c4ccc(N[C@H]5CCCN(C6CCOCC6)C5)c([N+](=O)[O-])c4)c(Oc4cnc5[nH]ccc5c4)c3)CC2)=C(c2ccc(Cl)cc2)C1 [Compound 105, 4-(4-{[2-(4-chlorophenyl)-4,4-dimethylcyclohex-1-en-1-yl]methyl}piperazin-1-yl)-N-[(3-nitro-4-{[(3S)-1-tetrahydro-2H-pyran-4-ylpiperidin-3-yl]amino}phenyl)sulfonyl]-2-(1H-pyrrolo[2,3-b]pyridin-5-yloxy)benzamide] | < 0.01
14 | CC1(C)CCC(CN2CCN(c3ccc(C(=O)NS(=O)(=O)c4ccc(NN5CCS(=O)(=O)CC5)c([N+](=O)[O-])c4)c(Oc4cnc5[nH]ccc5c4)c3)CC2)=C(c2ccc(Cl)cc2)C1 [Compound 107, trans-4-(4-{[2-(4-chlorophenyl)-4,4-dimethylcyclohex-1-en-1-yl]methyl}piperazin-1-yl)-N-({4-[(1,1-dioxidothiomorpholin-4-yl)amino]-3-nitrophenyl}sulfonyl)-2-(1H-pyrrolo[2,3-b]pyridin-5-yloxy)benzamide] | 0.035
15 | CC1(C)CCC(CN2CCN(c3ccc(C(=O)NS(=O)(=O)c4ccc(NCC5(N)CCOCC5)c([N+](=O)[O-])c4)c(Oc4cnc5[nH]ccc5c4)c3)CC2)=C(c2ccc(Cl)cc2)C1 [Compound 108, N-[(4-{[(4-aminotetrahydro-2H-pyran-4-yl)methyl]amino}-3-nitrophenyl)sulfonyl]-4-(4-{[2-(4-chlorophenyl)-4,4-dimethylcyclohex-1-en-1-yl]methyl}piperazin-1-yl)-2-(1H-pyrrolo[2,3-b]pyridin-5-yloxy)benzamide] | < 0.01
16 | CC1(C)CCC(CN2CCN(c3ccc(C(=O)NS(=O)(=O)c4ccc(N[C@H]5CC[C@@H](N6CCOCC6)C5)c([N+](=O)[O-])c4)c(Oc4cnc5[nH]ccc5c4)c3)CC2)=C(c2ccc(Cl)cc2)C1 [Compound 111, 4-(4-{[2-(4-chlorophenyl)-4,4-dimethylcyclohex-1-en-1-yl]methyl}piperazin-1-yl)-N-[(4-{[(1S,3R)-3-morpholin-4-ylcyclopentyl]amino}-3-nitrophenyl)sulfonyl]-2-(1H-pyrrolo[2,3-b]pyridin-5-yloxy)benzamide] | < 0.01
17 | CC1(C)CCC(CN2CCN(c3ccc(C(=O)NS(=O)(=O)c4ccc(N[C@@H]5CC[C@H](N6CCOCC6)C5)c([N+](=O)[O-])c4)c(Oc4cnc5[nH]ccc5c4)c3)CC2)=C(c2ccc(Cl)cc2)C1 [Compound 112, 4-(4-{[2-(4-chlorophenyl)-4,4-dimethylcyclohex-1-en-1-yl]methyl}piperazin-1-yl)-N-[(4-{[(1R,3S)-3-morpholin-4-ylcyclopentyl]amino}-3-nitrophenyl)sulfonyl]-2-(1H-pyrrolo[2,3-b]pyridin-5-yloxy)benzamide] | < 0.01
18 | CC1(C)CCC(CN2CCN(c3ccc(C(=O)NS(=O)(=O)c4ccc(NCC5CNCCO5)c([N+](=O)[O-])c4)c(Oc4cnc5[nH]ccc5c4)c3)CC2)=C(c2ccc(Cl)cc2)C1 (stereo not shown) [Compound 113, 4-(4-{[2-(4-chlorophenyl)-4,4-dimethylcyclohex-1-en-1-yl]methyl}piperazin-1-yl)-N-({4-[(morpholin-2-ylmethyl)amino]-3-nitrophenyl}sulfonyl)-2-(1H-pyrrolo[2,3-b]pyridin-5-yloxy)benzamide] | < 0.01
19 | CC1(C)CCC(CN2CCN(c3ccc(C(=O)NS(=O)(=O)c4ccc(NCC5CCOC5)c([N+](=O)[O-])c4)c(Oc4cnc5[nH]ccc5c4)c3)CC2)=C(c2ccc(Cl)cc2)C1 (stereo not shown) [Compound 114, 4-(4-{[2-(4-chlorophenyl)-4,4-dimethylcyclohex-1-en-1-yl]methyl}piperazin-1-yl)-N-({3-nitro-4-[(tetrahydrofuran-3-ylmethyl)amino]phenyl}sulfonyl)-2-(1H-pyrrolo[2,3-b]pyridin-5-yloxy)benzamide] | < 0.01
